Test results published in patent US20080306115A1, “Midazole-4-Carboxamide Derivatives For Use As Cb1 Modulators” (priority 2005, published 2008).

Target: T1, CB1 receptor (Homo sapiens, UniProt P21554)
T1 construct: expressed in transfected cells
Experiment: [35S]-GTPγS binding assay on membranes from cells stably transfected with the CB1 gene, antagonism of CP55940
Assay type: biochemical
Conditions: half maximal inhibition of GTPγS binding, EC80 concentration of agonist CP55940, 30° C., 45 min
Protocol: 10 μg of membranes prepared from cells stably transfected with the CB1 gene were suspended in […] of 100 mM NaCl, 5 mM MgCl2, 1 mM EDTA, 50 mM HEPES (pH 7.4), 1 mM DTT, 0.1% BSA and 100 μM GDP. To this was added an EC80 concentration of agonist (CP55940), the required concentration of test compound and 0.1 μCi [^35S]-GTPγS. The reaction was allowed to proceed at 30° C. for 45 min. Samples were then transferred on to GF/B filters using a cell harvester and washed with wash buffer (50 mM Tris (pH 7.4), 5 mM MgCl2, 50 mM NaCl). Filters were then covered with scintilant and counted for the amount of [^35S]-GTPγS retained by the filter.
Activity is measured in the absence of all ligands (minimum activity) or in the presence of an EC80 concentration of CP55940 (maximum activity). These activities are set as 0% and 100% activity respectively. At various concentrations of novel ligand, activity is calculated as a percentage of the maximum activity and plotted. The data are fitted using the equation y=A+((B−A)/1+((C/x) ÙD)) and the IC50 value determined as the concentration required to give half maximal inhibition of GTPγS binding under the conditions used.

T1 sequence (P21554 whole entry): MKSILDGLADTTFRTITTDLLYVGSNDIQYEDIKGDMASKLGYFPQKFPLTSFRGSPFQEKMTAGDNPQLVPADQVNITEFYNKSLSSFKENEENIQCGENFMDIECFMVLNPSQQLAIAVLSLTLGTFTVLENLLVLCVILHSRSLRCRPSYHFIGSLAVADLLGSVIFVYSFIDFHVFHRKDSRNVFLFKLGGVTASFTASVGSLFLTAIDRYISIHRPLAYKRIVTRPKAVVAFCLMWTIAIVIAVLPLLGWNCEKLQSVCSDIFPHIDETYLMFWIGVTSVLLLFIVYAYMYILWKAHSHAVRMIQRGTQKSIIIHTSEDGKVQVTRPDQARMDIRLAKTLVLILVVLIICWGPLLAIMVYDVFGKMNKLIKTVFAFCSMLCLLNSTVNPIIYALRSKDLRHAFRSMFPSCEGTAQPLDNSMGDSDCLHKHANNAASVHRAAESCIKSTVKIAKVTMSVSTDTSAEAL

IC50: 1.2 nM
SMILES: Cc1c(C(=O)Nc2ccc(F)nc2)nc(-c2ccc(Cl)cc2Cl)n1-c1ccc(OS(=O)(=O)CCC(F)(F)F)cc1 [Example 3, 4-(2-(2,4-dichlorophenyl)-4-{[(6-fluoropyridin-3-yl)amino]carbonyl}-5-methyl-1H-imidazol-1-yl)phenyl 3,3,3-trifluoropropane-1-sulfonate]
